Laboratory results taken from patent publication US20170153247A1, “METHOD FOR RISK ASSESSMENT OF ALLERGIC REACTION” (Excelsior Bio-System Incorporation, priority 2015, published 2017).

Tests used:
[1] = test system: binding between IgE in serum sample U and dust mite antigens; assay: IgE inhibition experiment, conventional protein array spotted with dust mite antigens; parameters: species or system human
Protocol: (§1) The sample serum is diluted with diluent buffer containing adequate amount of BSA, no-fat milk, and Tween-20. The peptide array of the present embodiment is incubated with each serum sample respectively at 37° C. for 1 hour. A wash buffer containing Tween-20 is added to the reaction area of the peptide array to wash out extra serum. Anti-human IgE antibody labeled with Cy3 is added to the reaction area of the peptide array. The anti-human IgE with Cy3 binds on antibodies in the sample serum that binds to the peptide probes in the reaction area. The peptide array is then incubated at 37° C. for 1 hour in darkness. The diluent, wash buffer, and anti-human IgE with Cy3 is provided by EBS Immunoflourescence Specific IgE Assay. A laser scanner with FD532 nm detector is utilized to scan the peptide array after incubation. The intensities of FD532 nm of each peptide probe on the peptide array can be obtained. For protein arrays the positive values are highlighted, while for peptide arrays the numbers (No.) of the peptide probes showing positive values are listed. […] For the peptide array of the present embodiment, although all of the peptide probes are derived from antigens of house dust mites, only a number of probes are bound to the serum samples and generate positive results. Generally, the serum sample U is incubated with different concentration Der-p10-17 peptide (#60) for 30 minutes, and then serum sample U is transferred on conventional protein arrays spotted with crab, shrimp, dust mite and house dust mite antigens. In each of these arrays, different reaction blocks represent serum sample U incubated with different concentrations of Der-p10-17 (#60), where X1 is serum sample U incubated with the original concentration of Der-p10-17 (#60). X2 is serum sample U incubated with 2-fold dilution of the original concentration, X4 is serum sample U incubated with a 4-fold dilution and X8 is serum sample U incubated with an 8-fold dilution. The experiment protocol in Table 5A-5D and FIGS. 12A-12D may refer to the IgE immunofluorescence assay used in Table 4. The […] nm intensity value of crabs, shrimps, dust mites, and house mites are shown respectively. Various concentrations of Der-p10-17 peptide (#60) are tested to evaluate the dependence of inhibition on the inhibitor peptide concentration. The results of the IgE inhibition experiments are presented in FIGS. 12A-12D and Tables 5A-5D.

[2] = test system: binding between IgE in serum sample U and crab antigens; assay: IgE inhibition experiment, conventional protein array spotted with crab antigens; parameters: species or system human
Protocol: (§2) The sample serum is diluted with diluent buffer containing adequate amount of BSA, no-fat milk, and Tween-20. The peptide array of the present embodiment is incubated with each serum sample respectively at 37° C. for 1 hour. A wash buffer containing Tween-20 is added to the reaction area of the peptide array to wash out extra serum. Anti-human IgE antibody labeled with Cy3 is added to the reaction area of the peptide array. The anti-human IgE with Cy3 binds on antibodies in the sample serum that binds to the peptide probes in the reaction area. The peptide array is then incubated
(§3) at 37° C. for 1 hour in darkness. The diluent, wash buffer, and anti-human IgE with Cy3 is provided by EBS Immunoflourescence Specific IgE Assay. A laser scanner with FD532 nm detector is utilized to scan the peptide array after incubation. The intensities of FD532 nm of each peptide probe on the peptide array can be obtained. For protein arrays the positive values are highlighted, while for peptide arrays the numbers (No.) of the peptide probes showing positive values are listed. […] For the peptide array of the present embodiment, although all of the peptide probes are derived from antigens of house dust mites, only a number of probes are bound to the serum samples and generate positive results.
(§4) Generally, the serum sample U is incubated with different concentration Der-p10-17 peptide (#60) for 30 minutes, and then serum sample U is transferred on conventional protein arrays spotted with crab, shrimp, dust mite and house dust mite antigens. In each of these arrays, different reaction blocks represent serum sample U incubated with different concentrations of Der-p10-17 (#60), where X1 is serum sample U incubated with the original concentration of Der-p10-17 (#60). X2 is serum sample U incubated with 2-fold dilution of the original concentration, X4 is serum sample U incubated with a 4-fold dilution and X8 is serum sample U incubated with an 8-fold dilution. The experiment protocol in Table 5A-5D and FIGS. 12A-12D may refer to the IgE immunofluorescence assay used in Table 4. The F532 nm intensity value of crabs, shrimps, dust mites, and house mites are shown respectively. Various concentrations of Der-p10-17 peptide (#60) are tested to evaluate the dependence of inhibition on the inhibitor peptide concentration. The results of the IgE inhibition experiments are presented in FIGS. 12A-12D and Tables 5A-5D.

[3] = test system: specific IgE in serum samples; assay: Serum samples analysis on peptide array (IgE immunofluorescence assay); assay type: binding, human
From the text: A plurality of peptide probes are synthesized according to each of the above peptide fragments of Der p1, Der p2, and Der p10. Theses synthesized peptide probes are spotted on a solid surface to construct a peptide array. The peptide array includes at least one reaction area, and each reaction area includes at least one reaction block. […] The peptide array of FIG. 11 includes at least one reaction area, and each reaction area includes 4 reaction blocks, namely R1, R2, R3, and R4.
Serum samples are used and labeled to evaluate the peptide array of the present embodiment. The labeled serum samples include 23 positive serum samples obtained from patients showing allergy symptoms, one negative serum sample, and one blank. Conventional protein arrays are also used in the test, probes for which being allergens extracted from allergenic substances derived from natural origins, such as crabs, shrimps, dust mites (Dermatophagoides farinae), house dust mites and storage mites (Blomia tropicalis). Group 10 allergens (tropomyosins) have been assumed to be a major cause of cross-reactivity between house dust mites and other invertebrates.
The sample serum is diluted with diluent buffer containing adequate amount of BSA, no-fat milk, and Tween-20. The peptide array of the present embodiment is incubated with each serum sample respectively at 37° C. for 1 hour. […]

[4] = test system: binding between IgE in serum sample U and house dust mite antigens; assay: IgE inhibition experiment, conventional protein array spotted with house dust mite antigens; parameters: species or system human
Protocol: as §1

[5] = test system: binding between IgE in serum sample U and shrimp antigens; assay: IgE inhibition experiment, conventional protein array spotted with shrimp antigens; parameters: species or system human
Protocol: as §2, §3, §4

[6] = Block 2-X8, serum sample U pre-incubated 30 minutes with 8-fold dilution of peptide
[7] = Block 3-X4, 4-fold dilution of peptide
[8] = Block 4-X2, 2-fold dilution of peptide
[9] = Block 5-X1, original concentration of peptide

## ELDQTFAELTGY [Der-p10-17]
[1]; Block 2-X8
  F532 nm intensity value, dust mites: 5767
[1]; [6]
  F532 nm intensity value, dust mites: 5979
[1]; [7]
  F532 nm intensity value, dust mites: 4767
[1]; [8]
  F532 nm intensity value, dust mites: 4428
[1]; [9]
  F532 nm intensity value, dust mites: 5475
[2]; Block 2-X8
  F532 nm intensity value, crabs: 14893
[2]; [6]
  F532 nm intensity value, crabs: 15148
[2]; Block 3-X4, serum sample U pre-incubated with 4-fold dilution of peptide
  F532 nm intensity value, crabs: 11803
[2]; Block 4-X2, serum sample U pre-incubated with 2-fold dilution of peptide
  F532 nm intensity value, crabs: 10695
[2]; Block 5-X1, serum sample U pre-incubated with original concentration of peptide
  F532 nm intensity value, crabs: 13067
[2]; serum sample U
  inhibition of IgE cross-linking / decrease of intensity values, crab: can inhibit the IgE cross-linking between shrimp and crab
[3]; peptide array
  binding of peptide probe to IgE in serum samples: can bind to IgE in serum samples
[3]; serum sample U, Table 4
  reactivity of serum sample U on the peptide array: reactive
[4]; [6]
  F532 nm intensity value, house dust mites: 3288
[4]; [7]
  F532 nm intensity value, house dust mites: 3247
[4]; [8]
  F532 nm intensity value, house dust mites: 3659
[4]; [9]
  F532 nm intensity value, house dust mites: 4288
[4]; serum sample U
  inhibition of binding between IgE and antigens extracted from natural house dust mites: can inhibit the binding between IgE and antigens extracted from natural house dust mites
[5]; Block 2-X8
  F532 nm intensity value, shrimps: 16678
[5]; [6]
  F532 nm intensity value, shrimps: 17902
[5]; [7]
  F532 nm intensity value, shrimps: 14759
[5]; [8]
  F532 nm intensity value, shrimps: 14481
[5]; [9]
  F532 nm intensity value, shrimps: 15396
[5]; serum sample U
  inhibition of IgE cross-linking / decrease of intensity values, shrimp: can inhibit the IgE cross-linking between shrimp and crab
